In ChEMBL document CHEMBL1201862, “PubChem BioAssay data set” (2004):
Activity calls are given as the source filed them.

Tests used:
[1] = control 3'UTR Renilla luciferase suppression, dose response, counter-screen for Shn3 inhibitor project, cell-based, Clone20-Shn3RL, cherry-picked (AID 624133); format: functional
[2] = HepG2 cell cytotoxicity, dose response, cytotoxicity control for Shn3 inhibitor project, CellTiter-Glo, cherry-picked (AID 624134); format: functional, cell-based
[3] = cytotoxicity in HEK-293T cells, dose response, cytotoxicity control for BCR NF-kB inhibitor project, luminescence, B-cell screen hits (AID 489021); format: functional, cell-based;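 also: HEK-293T cells carrying an NF-kB luciferase reporter; cells exposed to compound for about 14 hours before viability readout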
Protein Wnt-3a = Protein Wnt-3a (Mus musculus, UniProt P27467); assay: Wnt3a-driven reporter signaling inhibition, dose response, selectivity assay for Gli-SUFU antagonist project, Wnt-LIGHT cells, luminescence (AID 651570); format: functional; conditions: read-out: IC50_Mean;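 also: Wnt-LIGHT reporter cells stimulated with conditioned medium from Wnt3a-producing cells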
Chain of Protein Wnt-3a (P27467 whole entry): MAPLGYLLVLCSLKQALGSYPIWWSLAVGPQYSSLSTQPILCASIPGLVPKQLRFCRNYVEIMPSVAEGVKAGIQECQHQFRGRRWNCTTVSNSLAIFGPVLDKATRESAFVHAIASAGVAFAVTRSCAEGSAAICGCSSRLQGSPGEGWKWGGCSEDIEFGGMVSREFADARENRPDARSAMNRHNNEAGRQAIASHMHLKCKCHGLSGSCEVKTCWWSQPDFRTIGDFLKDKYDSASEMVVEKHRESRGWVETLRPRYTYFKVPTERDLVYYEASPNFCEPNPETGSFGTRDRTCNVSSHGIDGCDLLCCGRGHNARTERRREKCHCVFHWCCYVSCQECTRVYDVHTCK

[4] = Shn3 3'UTR reporter inhibitors, dose response, cell-based, Clone20 osteoblasts, firefly luciferase, cherry-picked (AID 624132); format: functional;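 also: firefly luciferase luminescence from reporter carrying the Shn3 3'UTR in osteoblasts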
[5] = target: Eukaryotic translation initiation factor 4E (Mus musculus, UniProt P63073); assay: eIF4E–eIF4G protein interaction inhibitors, dose response, biochemical, TR-FRET (AID 855); format: functional;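 also: potency for disrupting eIF4E binding to eIF4GI seen as loss of FRET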
Chain of Eukaryotic translation initiation factor 4E (P63073 whole entry): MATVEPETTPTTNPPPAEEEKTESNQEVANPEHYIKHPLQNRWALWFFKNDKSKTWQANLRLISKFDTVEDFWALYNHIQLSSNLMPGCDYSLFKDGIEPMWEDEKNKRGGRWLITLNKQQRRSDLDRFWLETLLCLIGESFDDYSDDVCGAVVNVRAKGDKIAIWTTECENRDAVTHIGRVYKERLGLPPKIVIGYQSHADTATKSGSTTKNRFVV

[6] = target: T1, Rac GTPase-activating protein 1 (Homo sapiens, UniProt Q9H0H5); assay: MgcRacGAP GTPase-activating activity inhibitors, confirmation, biochemical, ADP Hunter fluorescence, primary and confirmatory (AID 624330); format: functional
T1 sequence (Q9H0H5 whole entry): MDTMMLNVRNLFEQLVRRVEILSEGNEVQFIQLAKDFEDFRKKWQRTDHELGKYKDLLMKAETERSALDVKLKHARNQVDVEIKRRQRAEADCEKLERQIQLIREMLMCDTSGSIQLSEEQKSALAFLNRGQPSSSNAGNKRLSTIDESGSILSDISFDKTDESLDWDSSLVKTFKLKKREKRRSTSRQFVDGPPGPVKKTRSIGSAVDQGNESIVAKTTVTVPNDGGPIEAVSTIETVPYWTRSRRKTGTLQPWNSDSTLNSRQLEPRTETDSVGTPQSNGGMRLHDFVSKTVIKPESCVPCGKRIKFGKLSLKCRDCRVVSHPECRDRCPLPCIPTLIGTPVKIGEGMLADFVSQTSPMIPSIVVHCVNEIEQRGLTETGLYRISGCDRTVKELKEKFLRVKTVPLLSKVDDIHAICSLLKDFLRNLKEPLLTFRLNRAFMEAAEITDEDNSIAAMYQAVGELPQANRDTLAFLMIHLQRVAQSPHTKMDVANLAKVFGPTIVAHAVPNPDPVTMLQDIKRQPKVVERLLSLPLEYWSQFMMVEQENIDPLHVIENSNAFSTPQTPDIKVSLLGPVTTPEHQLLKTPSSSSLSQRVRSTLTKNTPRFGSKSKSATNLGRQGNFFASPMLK

Leucine aminopeptidase = target: T2, Leucine aminopeptidase (Plasmodium falciparum 3D7, UniProt Q8IL11); assay: P. falciparum M17LAP inhibitors, primary screen, biochemical, fluorogenic H-Leu-NHMec substrate, 1536-well (AID 1619); format: functional
T2 sequence (Q8IL11 whole entry): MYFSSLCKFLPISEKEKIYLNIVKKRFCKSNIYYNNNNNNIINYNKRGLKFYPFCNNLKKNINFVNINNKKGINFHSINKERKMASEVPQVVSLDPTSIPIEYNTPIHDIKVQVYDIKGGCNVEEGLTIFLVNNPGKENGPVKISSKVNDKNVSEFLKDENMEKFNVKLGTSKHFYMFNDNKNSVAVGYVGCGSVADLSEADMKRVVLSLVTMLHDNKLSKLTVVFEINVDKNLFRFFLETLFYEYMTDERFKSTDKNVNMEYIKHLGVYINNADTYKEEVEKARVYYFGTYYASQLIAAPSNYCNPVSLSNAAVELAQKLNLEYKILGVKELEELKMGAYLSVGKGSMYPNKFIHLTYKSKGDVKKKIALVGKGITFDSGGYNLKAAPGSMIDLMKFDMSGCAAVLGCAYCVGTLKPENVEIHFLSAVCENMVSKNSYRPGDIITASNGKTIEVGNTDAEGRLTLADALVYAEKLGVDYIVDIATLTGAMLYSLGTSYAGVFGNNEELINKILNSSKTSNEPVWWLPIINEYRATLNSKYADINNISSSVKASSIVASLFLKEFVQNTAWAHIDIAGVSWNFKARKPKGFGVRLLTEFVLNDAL

[7] = target: T3, Calpain-2 catalytic subunit (Sus scrofa, UniProt P43367); assay: pig calpain II inhibitor potency, dose response, biochemical, fluorogenic peptide substrate (AID 1420); format: functional
T3 sequence (P43367 whole entry): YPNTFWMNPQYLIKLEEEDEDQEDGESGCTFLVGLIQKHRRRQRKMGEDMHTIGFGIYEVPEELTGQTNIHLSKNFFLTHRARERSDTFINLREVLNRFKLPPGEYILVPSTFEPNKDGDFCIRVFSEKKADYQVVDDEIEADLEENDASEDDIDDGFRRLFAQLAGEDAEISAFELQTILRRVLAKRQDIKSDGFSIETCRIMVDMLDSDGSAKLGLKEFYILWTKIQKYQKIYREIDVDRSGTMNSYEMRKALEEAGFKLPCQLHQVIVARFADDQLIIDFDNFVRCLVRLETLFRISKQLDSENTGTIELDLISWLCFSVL

[8] = inhibitors of firefly luciferase expression or activity, dose response, H4 neuroglioma cells, luminescence (AID 1990); format: functional, cell-based
[9] = Luminescence Cell-Based Dose Response HTS to Identify Inhibitors of 5'UTR Stem-Loop Driven Prion Protein mRNA Translation in H4 Neuroglioblastoma Cells. [Related pubchem assays: 1827 (Project Summary), 1813 (Primary HTS)]; format: functional
[10] = inhibitors of SNCA 5'UTR-driven reporter translation, confirmation, H4 neuroglioma cells, luminescence (AID 1988); format: functional, cell-based
[11] = cytotoxicity in HEK-293T cells, dose response, cytotoxicity control for TCR NF-kB inhibitor project, luminescence, T-cell screen hits (AID 489026); format: functional, cell-based;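 also: cells exposed to compound about 14 hours before the viability readout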
[12] = target: T4, Heat shock factor protein 1 (Mus musculus, UniProt P38532); assay: HSF1 potentiators in luciferase reporter cells, confirmation, cell-based, NIH3T3, luminescence, dose retest (AID 435004); format: functional;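 also: stress induced by proteasome inhibitor MG132 added 30 min after compound; luciferase reporter driven by HSF1 response element in NIH3T3 cells; actives raise luminescence as potentiators of the MG132 stress response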
T4 sequence (P38532 whole entry): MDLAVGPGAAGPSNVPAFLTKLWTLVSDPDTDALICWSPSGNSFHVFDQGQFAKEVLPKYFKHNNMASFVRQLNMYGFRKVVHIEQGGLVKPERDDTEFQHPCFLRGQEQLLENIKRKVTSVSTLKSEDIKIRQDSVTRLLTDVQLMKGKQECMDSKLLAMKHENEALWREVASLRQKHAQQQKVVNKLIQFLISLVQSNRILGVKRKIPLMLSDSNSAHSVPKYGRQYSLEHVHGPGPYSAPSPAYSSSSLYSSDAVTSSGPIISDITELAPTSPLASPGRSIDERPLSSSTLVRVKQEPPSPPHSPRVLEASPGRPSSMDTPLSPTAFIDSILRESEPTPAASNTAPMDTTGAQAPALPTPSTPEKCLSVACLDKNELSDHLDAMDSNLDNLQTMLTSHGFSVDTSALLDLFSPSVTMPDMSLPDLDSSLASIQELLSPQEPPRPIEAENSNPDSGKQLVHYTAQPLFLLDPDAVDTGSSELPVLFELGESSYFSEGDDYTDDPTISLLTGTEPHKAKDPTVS

SUMO-activating enzyme [13] = target: T5, SUMO-activating enzyme (Homo sapiens, UniProt Q9UBT2); assay: SUMOylation inhibitor hit validation, confirmation, SUMOylation inhibitor project, biochemical, AlphaScreen (AID 2018); format: functional
T5 sequence (Q9UBE0 whole entry): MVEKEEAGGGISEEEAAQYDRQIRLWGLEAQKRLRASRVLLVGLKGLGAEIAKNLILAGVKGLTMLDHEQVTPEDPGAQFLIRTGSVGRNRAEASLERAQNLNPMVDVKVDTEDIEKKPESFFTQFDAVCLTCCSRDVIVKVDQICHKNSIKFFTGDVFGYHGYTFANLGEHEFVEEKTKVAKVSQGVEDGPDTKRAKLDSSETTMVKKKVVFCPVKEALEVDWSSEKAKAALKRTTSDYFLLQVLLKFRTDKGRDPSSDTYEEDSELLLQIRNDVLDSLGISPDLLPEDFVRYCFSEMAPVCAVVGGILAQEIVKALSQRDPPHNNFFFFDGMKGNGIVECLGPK
T5 sequence (Q9UBT2 whole entry): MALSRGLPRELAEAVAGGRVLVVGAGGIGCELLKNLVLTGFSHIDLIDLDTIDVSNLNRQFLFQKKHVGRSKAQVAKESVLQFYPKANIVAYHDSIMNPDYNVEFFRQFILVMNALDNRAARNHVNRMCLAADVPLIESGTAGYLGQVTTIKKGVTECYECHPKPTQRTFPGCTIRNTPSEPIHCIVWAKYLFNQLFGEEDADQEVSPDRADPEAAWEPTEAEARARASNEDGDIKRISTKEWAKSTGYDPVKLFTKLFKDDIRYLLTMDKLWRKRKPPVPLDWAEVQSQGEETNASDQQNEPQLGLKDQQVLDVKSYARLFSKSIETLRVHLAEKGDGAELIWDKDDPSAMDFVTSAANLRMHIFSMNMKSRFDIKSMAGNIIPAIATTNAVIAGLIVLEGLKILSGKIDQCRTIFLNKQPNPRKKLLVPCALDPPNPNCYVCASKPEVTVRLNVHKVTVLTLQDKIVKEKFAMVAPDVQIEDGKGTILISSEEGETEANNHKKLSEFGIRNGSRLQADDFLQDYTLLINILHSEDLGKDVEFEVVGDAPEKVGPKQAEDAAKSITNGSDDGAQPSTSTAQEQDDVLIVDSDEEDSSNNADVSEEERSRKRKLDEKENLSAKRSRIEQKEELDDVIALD

SUMO-activating enzyme [14] = target: T5, SUMO-activating enzyme; assay: inhibitors of in vitro SUMOylation cascade, primary screen, biochemical, HTRF, uHTS (AID 2006); format: protein-complex assay
[15] = target: Induced myeloid leukemia cell differentiation protein Mcl-1 (Homo sapiens, UniProt Q07820); format: functional
Chain of Induced myeloid leukemia cell differentiation protein Mcl-1 (Q07820 whole entry): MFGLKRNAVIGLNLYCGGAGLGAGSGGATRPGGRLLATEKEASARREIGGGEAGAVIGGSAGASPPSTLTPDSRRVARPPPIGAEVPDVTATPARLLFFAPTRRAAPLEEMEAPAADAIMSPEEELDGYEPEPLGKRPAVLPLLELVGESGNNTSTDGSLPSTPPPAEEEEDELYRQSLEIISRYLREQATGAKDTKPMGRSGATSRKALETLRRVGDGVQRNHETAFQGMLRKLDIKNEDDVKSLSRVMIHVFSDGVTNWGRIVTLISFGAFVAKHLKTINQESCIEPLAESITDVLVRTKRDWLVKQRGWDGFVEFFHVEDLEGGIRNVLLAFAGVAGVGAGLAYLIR

[16] = target: T6, Zinc finger protein mex-5 (Caenorhabditis elegans, UniProt Q9XUB2); assay: MEX-5/TCR-2 RNA interaction inhibitors, dose response, biochemical, C. elegans, fluorescence polarization (AID 1960)
T6 sequence (Q9XUB2 whole entry): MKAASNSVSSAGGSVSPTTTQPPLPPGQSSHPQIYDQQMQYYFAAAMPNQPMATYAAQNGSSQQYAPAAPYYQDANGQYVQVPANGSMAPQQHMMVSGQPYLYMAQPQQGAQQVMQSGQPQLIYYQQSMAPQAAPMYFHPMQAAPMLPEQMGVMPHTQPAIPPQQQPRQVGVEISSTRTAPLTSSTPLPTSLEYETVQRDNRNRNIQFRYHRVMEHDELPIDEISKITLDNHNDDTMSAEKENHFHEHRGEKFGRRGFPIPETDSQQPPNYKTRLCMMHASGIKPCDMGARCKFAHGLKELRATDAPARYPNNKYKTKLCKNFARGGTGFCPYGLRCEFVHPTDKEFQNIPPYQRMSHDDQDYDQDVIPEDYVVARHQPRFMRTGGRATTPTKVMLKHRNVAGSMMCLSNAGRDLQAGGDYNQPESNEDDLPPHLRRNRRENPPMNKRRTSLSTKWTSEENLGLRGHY

Genome polyprotein = Genome polyprotein (dengue virus type 2, UniProt P29990); assay: Dengue-2 NS5 methyltransferase inhibitors, primary screen, biochemical, confirmation dose response (AID 588689); format: functional
Chain of Genome polyprotein (P29990 2492-3391 limits assumed): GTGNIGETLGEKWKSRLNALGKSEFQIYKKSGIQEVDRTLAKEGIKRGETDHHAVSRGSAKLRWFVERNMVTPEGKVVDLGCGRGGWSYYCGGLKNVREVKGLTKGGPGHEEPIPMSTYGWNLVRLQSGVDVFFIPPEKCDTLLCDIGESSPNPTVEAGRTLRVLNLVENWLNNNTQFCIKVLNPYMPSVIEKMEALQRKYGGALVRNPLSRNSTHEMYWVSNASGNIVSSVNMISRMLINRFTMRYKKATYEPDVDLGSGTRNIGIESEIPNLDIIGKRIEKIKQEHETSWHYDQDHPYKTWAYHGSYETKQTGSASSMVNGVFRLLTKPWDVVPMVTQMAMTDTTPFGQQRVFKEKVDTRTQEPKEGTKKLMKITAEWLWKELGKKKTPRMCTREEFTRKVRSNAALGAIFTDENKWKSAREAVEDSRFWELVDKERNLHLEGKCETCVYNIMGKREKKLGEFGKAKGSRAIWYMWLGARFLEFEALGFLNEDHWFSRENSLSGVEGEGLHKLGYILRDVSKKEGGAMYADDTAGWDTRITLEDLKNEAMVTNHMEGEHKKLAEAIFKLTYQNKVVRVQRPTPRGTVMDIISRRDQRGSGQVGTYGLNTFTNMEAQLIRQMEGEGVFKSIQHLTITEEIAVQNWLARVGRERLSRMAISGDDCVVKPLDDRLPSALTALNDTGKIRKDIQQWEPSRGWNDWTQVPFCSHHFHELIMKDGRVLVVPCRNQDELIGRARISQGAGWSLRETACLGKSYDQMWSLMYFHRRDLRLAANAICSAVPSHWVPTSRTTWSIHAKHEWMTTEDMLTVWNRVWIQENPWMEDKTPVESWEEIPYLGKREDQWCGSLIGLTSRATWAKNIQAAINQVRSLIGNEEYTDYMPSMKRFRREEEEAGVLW

[17] = target: T7, RNA-binding protein pos-1 (Caenorhabditis elegans, UniProt G5EF15); assay: inhibitors of POS-1/mex-3 RNA binding, dose response, biochemical, fluorescence polarization (AID 1964);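 also: purified POS-1 fused to maltose binding protein made in E. coli; potency of compounds blocking POS-1 binding to fluorescent RNA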
T7 sequence (G5EF15 whole entry): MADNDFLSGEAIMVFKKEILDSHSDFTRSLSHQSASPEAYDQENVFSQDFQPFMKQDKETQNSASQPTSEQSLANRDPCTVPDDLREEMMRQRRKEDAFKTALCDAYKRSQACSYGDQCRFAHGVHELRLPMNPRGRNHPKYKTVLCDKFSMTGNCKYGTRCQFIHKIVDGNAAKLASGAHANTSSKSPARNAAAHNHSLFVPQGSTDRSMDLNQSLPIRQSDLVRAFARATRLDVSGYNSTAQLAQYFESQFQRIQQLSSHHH

[18] = target: T8, Microphthalmia-associated transcription factor (Homo sapiens, UniProt O75030); assay: TRPM1 promoter luciferase signal decrease, dose response, MITF inhibitor project, cell-based, SK-MEL-5, cherry-picked, set 3 (AID 493073); format: functional
T8 sequence (O75030 whole entry): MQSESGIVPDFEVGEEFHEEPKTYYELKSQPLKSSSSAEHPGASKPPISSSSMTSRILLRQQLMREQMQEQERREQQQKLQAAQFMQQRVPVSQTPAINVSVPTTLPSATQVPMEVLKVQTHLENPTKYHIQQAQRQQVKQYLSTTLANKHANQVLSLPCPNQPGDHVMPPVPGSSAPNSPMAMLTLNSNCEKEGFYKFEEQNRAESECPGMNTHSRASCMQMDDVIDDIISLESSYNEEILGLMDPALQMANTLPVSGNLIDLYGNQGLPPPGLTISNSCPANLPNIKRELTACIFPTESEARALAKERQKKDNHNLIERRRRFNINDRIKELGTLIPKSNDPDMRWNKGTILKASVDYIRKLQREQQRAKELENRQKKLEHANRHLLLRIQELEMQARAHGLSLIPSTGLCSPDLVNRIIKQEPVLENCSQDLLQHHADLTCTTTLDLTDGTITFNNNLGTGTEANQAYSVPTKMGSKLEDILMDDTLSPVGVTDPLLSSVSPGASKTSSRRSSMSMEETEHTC

[19] = NIH-3T3 fibroblast cytotoxicity, dose response, cytotoxicity control, cell-based, fluorescence, Alamar Blue, secondary assay (AID 2327); format: functional;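 also: NIH-3T3 mouse fibroblasts cultured with fluconazole at 8 µg/mL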
[20] = C. albicans growth with fluconazole, confirmation, fluorescence, retest (AID 2467); format: functional, cell-based
[21] = Luminescence Cell-Based Dose Retest to Confirm Inhibitors of Cancer Stem Cells. [Related pubchem assays (depositor defined):AID2717, AID2721]; format: functional; conditions: Homo sapiens

CC1CN(S(=O)(=O)c2ccc(C(=O)Nc3nc(-c4cc5ccccc5o4)cs3)cc2)CC(C)O1 (centres undefined)
AC50 [1]: 2.04 µM (active) | AC50 [2]: 1.02 µM (active) | IC50 [3]: > 80 µM (inactive) | IC50 (Protein Wnt-3a): 1.28 µM (active) | AC50 [4]: < 0.26 µM (active)

Cc1cccc(Nc2nnc(S)s2)c1C
IC50 [5]: > 64 µM (inactive) | IC50 [6]: 67.2 µM (active) | IC50 (Leucine aminopeptidase): 9.62 µM (active)

Cc1c(CCC(=O)N2CCC(C(=O)O)(c3ccccc3)CC2)c(=O)oc2cc3oc4c(c3cc12)CCCC4
IC50 [3]: > 80 µM (inactive)

O=C(COc1ccc(C(=O)c2ccccc2)cc1)NCc1ccc(F)cc1
IC50 [7]: > 50 µM (not active) | EC50 [8]: > 120 µM (not active) | EC50 [9]: 10 µM (active) | EC50 [10]: 7.25 µM (active) | IC50 [11]: > 80 µM (inactive)

Cc1ccc(O)c(NC(=O)COc2cc(C)ccc2C)c1
IC50 [3]: > 80 µM (inactive) | EC50 [12]: > 260 µM (inactive)

Cc1ccc(CNC(=O)c2ccc(N3CCc4ccccc43)c([N+](=O)[O-])c2)cc1
IC50 [5]: > 64 µM (inactive)

CC1=C(C#N)C(=O)NC(=O)/C1=C\c1ccc(-c2cc(C)c(C)cc2[N+](=O)[O-])o1
IC50 (SUMO-activating enzyme [13]): 5.31 µM (active) | IC50 [5]: 40.4 µM (inactive) | IC50 (SUMO-activating enzyme [14]): 39.7 µM (active) | IC50 [15]: 2.87 µM (active) | EC50 [16]: > 300 µM (not active) | IC50 (Genome polyprotein): 64.9 µM (active) | EC50 [17]: > 300 µM (not active)

Cc1ccc(-c2cc(-c3ccc(C)cc3)[n+](C)o2)cc1.[O-][Cl+3]([O-])([O-])[O-]
AC50 [18]: 8.24 µM (active) | EC50 [19]: > 160 µM (inactive) | EC50 [20]: > 38 µM (not active)

COc1ccc(/C=C2\SC(=S)N(CCC(=O)Nc3ccc(O)cc3)C2=O)cc1
IC50 [3]: > 80 µM (inactive)

O=C1OC(c2cccs2)=N/C1=C/c1ccc(-c2cccc(C(=O)O)c2)o1
IC50 [5]: 32.7 µM (inactive) | IC50 [15]: 1.53 µM (not active)

CCOC(=O)c1c(CSc2ccccc2)n(C)c2cc(Br)c(OCC(O)CNC(CO)(CO)CO)cc12 (centres undefined)
IC50 (SUMO-activating enzyme [13]): 2.75 µM (active) | IC50 (SUMO-activating enzyme [14]): 17.9 µM (active) | AC50 [21]: 1.46 µM (active)

CCc1ccc(/C=N/NC(=O)c2cc(-c3ccncc3)nc3ccccc23)s1
IC50 [11]: > 80 µM (inactive)
